Measurements: article PMC8119466, “A screen of FDA-approved drugs identifies inhibitors of protein tyrosine phosphatase 4A3 (PTP4A3 or PRL-3)” (Scientific Reports, 2021)
Where a name gives a salt, the structure may show the parent alone. Read-outs that look alike come from different tables or passages of the source.

Columns and labels:
Type in all cases: biochemical
[1] = target: T1, recombinant PRL-2 (Homo sapiens, UniProt Q12974); assay: In vitro phosphatase assay (DiFMUP hydrolysis), PRL-2;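 note: PRL-2 activity read as DiFMUP hydrolysis after 20 min at room temperature with drug, enzyme first pre-reduced at 4 °C for 20 min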
T1 construct: 6xHis (N, cleaved yes); made in house; host or cells: E. coli One Shot BL21 Star
T1 sequence (Q12974 1-167): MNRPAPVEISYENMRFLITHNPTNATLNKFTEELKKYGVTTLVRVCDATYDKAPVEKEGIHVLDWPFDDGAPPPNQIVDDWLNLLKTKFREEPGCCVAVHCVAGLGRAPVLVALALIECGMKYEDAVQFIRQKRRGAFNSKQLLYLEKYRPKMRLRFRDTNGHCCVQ

[2] = target: T2, recombinant PRL-3 (Homo sapiens, UniProt O75365); assay: In vitro phosphatase assay (DiFMUP hydrolysis), PRL-3; note: test concentration or dose not given here
T2 construct: 6xHis (N, cleaved yes); made in house; host or cells: E. coli One Shot BL21 Star

[3] = target: T3, recombinant PRL-1 (Homo sapiens, UniProt Q93096); assay: In vitro phosphatase assay (DiFMUP hydrolysis), PRL-1; note: test concentration or dose not given here
T3 construct: 6xHis (N, cleaved yes); made in house; host or cells: E. coli One Shot BL21 Star
T3 sequence (Q93096 1-173): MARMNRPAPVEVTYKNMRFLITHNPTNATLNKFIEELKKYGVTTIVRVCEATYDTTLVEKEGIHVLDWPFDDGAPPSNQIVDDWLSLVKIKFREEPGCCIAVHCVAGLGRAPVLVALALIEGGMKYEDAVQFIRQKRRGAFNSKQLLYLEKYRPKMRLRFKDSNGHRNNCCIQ

[4] = FDA-approved drug screen, compared to DMSO
[5] = FDA-approved drug screen, activity compared to DMSO

T2 sequence (O75365 whole entry): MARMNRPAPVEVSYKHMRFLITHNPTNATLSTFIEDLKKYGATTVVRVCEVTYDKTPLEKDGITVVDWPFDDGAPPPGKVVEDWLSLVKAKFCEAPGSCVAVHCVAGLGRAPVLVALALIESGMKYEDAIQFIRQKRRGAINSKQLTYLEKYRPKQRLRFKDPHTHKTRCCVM

SMILES	% Phosphatase Activity (compared to DMSO) PRL-2 [1, 4]	% Phosphatase Activity (compared to DMSO) PRL-3 [2, 4]	% Phosphatase Activity (compared to DMSO) PRL-1 [3, 4]	also measured
CC/C(=C(/CC)c1ccc(O)cc1)c1ccc(O)cc1 [Diethylstilbestrol]	97%	92%	86%	–
CC(C(=O)O)c1ccc(C(=O)c2cccs2)cc1 (stereo not drawn) [Suprofen]	–	–	–	% Phosphatase Activity (compared to DMSO) PRL-2 [1, 5]: 95%; % Phosphatase Activity (compared to DMSO) PRL-3 [2, 5]: 92%; % Phosphatase Activity (compared to DMSO) PRL-1 [3, 5]: 93%
COc1cc(Nc2ncc(F)c(Nc3ccc4c(n3)N(COP(=O)([O-])[O-])C(=O)C(C)(C)O4)n2)cc(OC)c1OC.[Na+].[Na+] [R788 (Fostamatinib) Disodium]	119%	88%	90%	–
CC(C)NCC(O)c1cc(O)cc(O)c1 (stereo not drawn) [Metaproterenol Sulfate]	112%	95%	98%	–
CN(C)CCOC(C)(c1ccccc1)c1ccccn1 (stereo not drawn) [Doxylamine Succinate]	83%	71%	91%	–
O=C(O)CCCc1ccc(N(CCCl)CCCl)cc1 [Chloroambucil]	103%	77%	98%	–
Cc1ccsc1C(=CCCN1CCC[C@@H](C(=O)O)C1)c1sccc1C [Tiagabine]	–	–	–	% Phosphatase Activity (compared to DMSO) PRL-2 [1, 5]: 104%; % Phosphatase Activity (compared to DMSO) PRL-3 [2, 5]: 78%; % Phosphatase Activity (compared to DMSO) PRL-1 [3, 5]: 100%
CC(=O)Oc1ccc(C(c2ccc(OC(C)=O)cc2)c2ccccn2)cc1 [Bisacodyl]	104%	66%	88%	–
CCOC(=O)[C@@H](N)Cc1ccc(-c2cc(O[C@H](c3ccc(Cl)cc3-n3ccc(C)n3)C(F)(F)F)nc(N)n2)cc1.O=C(O)CNC(=O)c1ccccc1 [Telotristat Etiprate (LX 1606 Hippurate)]	–	–	–	% Phosphatase Activity (compared to DMSO) PRL-2 [1, 5]: 108%; % Phosphatase Activity (compared to DMSO) PRL-3 [2, 5]: 97%; % Phosphatase Activity (compared to DMSO) PRL-1 [3, 5]: 106%
NC[C@@H]1O[C@H](O[C@H]2[C@@H](O)[C@H](O[C@@H]3[C@@H](O)[C@H](N)C[C@H](N)[C@H]3O[C@H]3O[C@H](CN)[C@@H](O)[C@H](O)[C@H]3N)O[C@@H]2CO)[C@H](N)[C@@H](O)[C@@H]1O.O=S(=O)(O)O [Neomycin sulfate]	103%	86%	98%	–
CC1(C)[C@H](C(=O)O)N2C(=O)C[C@H]2S1(=O)=O [Sulbactam]	–	–	–	% Phosphatase Activity (compared to DMSO) PRL-2 [1, 5]: 91%; % Phosphatase Activity (compared to DMSO) PRL-3 [2, 5]: 81%; % Phosphatase Activity (compared to DMSO) PRL-1 [3, 5]: 95%
CC1(C)S[C@@H]2[C@H](NC(=O)[C@H](N)c3ccc(O)cc3)C(=O)N2[C@H]1C(=O)[O-].[Na+] [Amoxicillin Sodium]	–	–	–	% Phosphatase Activity (compared to DMSO) PRL-2 [1]: 114%; % Phosphatase Activity (compared to DMSO) PRL-3 [2]: 80%; % Phosphatase Activity (compared to DMSO) PRL-1 [3]: 97%
C[C@]12C=CC(=O)C=C1CC[C@@H]1[C@@H]2[C@@H](O)C[C@@]2(C)[C@H]1CC[C@]2(O)C(=O)CO [Prednisolone]	99%	103%	89%	–
Cc1c(C(N)=O)cc([N+](=O)[O-])cc1[N+](=O)[O-] [Dinitolmide]	117%	90%	107%	–
O=C1c2c(O)ccc(O)c2C(=O)c2c(NCCNCCO)ccc(NCCNCCO)c21 [Mitoxantrone HCl]	76%	61%	74%	–
COc1ccc2c(c1OC)C(=O)O[C@@H]2[C@H]1c2c(cc3c(c2OC)OCO3)CCN1C [Noscapine HCl]	116%	103%	92%	–

SMILES	% Phosphatase Activity (compared to DMSO) PRL-2 [1, 4]	% Phosphatase Activity (compared to DMSO) PRL-3 [2, 4]	% Phosphatase Activity (compared to DMSO) PRL-1 [3, 4]	also measured
CN1CC[C@H](c2c(O)cc(O)c3c(=O)cc(-c4ccccc4Cl)oc23)[C@H](O)C1 [Flavopiridol (Alvocidib)]	82%	68%	92%	–
CNNCc1ccc(C(=O)NC(C)C)cc1 [Procarbazine HCl]	90%	87%	103%	–
COc1ccc2[nH]cc(CCNC(C)=O)c2c1 [Melatonin]	108%	81%	125%	–
CC(C)(CO)[C@@H](O)C(=O)NCCCO [D panthenol]	80%	90%	93%	–
CCc1oc2ccccc2c1C(=O)c1cc(Br)c(O)c(Br)c1 [Benzbromarone]	56%	51%	63%	–
CS(=O)(=O)c1ccc(C(=O)Nc2ccc(Cl)c(-c3ccccn3)c2)c(Cl)c1 [Vismodegib (GDC-0449)]	–	–	–	% Phosphatase Activity (compared to DMSO) PRL-2 [1, 5]: 99%; % Phosphatase Activity (compared to DMSO) PRL-3 [2, 5]: 79%; % Phosphatase Activity (compared to DMSO) PRL-1 [3, 5]: 94%
NC(=O)N1CCC(CC(=O)N2CCC([C@H]3c4ncc(Br)cc4CCc4cc(Cl)cc(Br)c43)CC2)CC1 [Lonafarnib]	103%	97%	97%	–
CCCCCCCCOc1ccccc1C(=O)Nc1ccc(C(=O)OCC[N+](C)(CC)CC)cc1 [Otilonium Bromide]	105%	111%	102%	–
COc1ccc(C(CN(C)C)C2(O)CCCCC2)cc1 (stereo not drawn) [Venlafaxine]	–	–	–	% Phosphatase Activity (compared to DMSO) PRL-2 [1, 5]: 100%; % Phosphatase Activity (compared to DMSO) PRL-3 [2, 5]: 84%; % Phosphatase Activity (compared to DMSO) PRL-1 [3, 5]: 97%
Clc1ccc(C(Cn2ccnc2)OCc2ccsc2Cl)c(Cl)c1 (stereo not drawn) [Tioconazole]	–	–	–	% Phosphatase Activity (compared to DMSO) PRL-2 [1]: 92%; % Phosphatase Activity (compared to DMSO) PRL-3 [2]: 84%; % Phosphatase Activity (compared to DMSO) PRL-1 [3]: 83%
CC(C)NCC(O)c1ccc(NS(C)(=O)=O)cc1 (stereo not drawn) [Sotalol]	–	–	–	% Phosphatase Activity (compared to DMSO) PRL-2 [1, 5]: 97%; % Phosphatase Activity (compared to DMSO) PRL-3 [2, 5]: 78%; % Phosphatase Activity (compared to DMSO) PRL-1 [3, 5]: 98%
C=C1/C(=C\C=C2/CCC[C@]3(C)[C@@H]([C@H](C)CCCC(C)C)CC[C@@H]23)C[C@@H](O)C[C@@H]1O [Alfacalcidol]	82%	75%	99%	–
NC(=O)CC[C@H](N)C(=O)O [L-Glutamine]	77%	87%	94%	–
CCCCNc1ccc(C(=O)OCCN(C)C)cc1 [Tetracaine HCl]	–	–	–	% Phosphatase Activity (compared to DMSO) PRL-2 [1, 5]: 116%; % Phosphatase Activity (compared to DMSO) PRL-3 [2, 5]: 88%; % Phosphatase Activity (compared to DMSO) PRL-1 [3, 5]: 99%
NC(=O)c1cnccn1 [Pyrazinamide]	93%	95%	85%	–
